In patent US9067896B2, “Crystalline forms of 3-(2,6-dichloro-3,5-dimethoxy-phenyl)-1-{6-[4-(4-ethyl-piperazin-1-yl) -phenylamino]-pyrimidin-4-yl}-1-methyl-urea and salts thereof” (Novartis AG, priority 2009, dated 2015):
≈ marks a conversion by molar mass, not a printed value. Counter-ions that a name gives are not always drawn. Each block holds one molecule with its values, some of them ahead of it.

Experiments:
[1] = Polymorphic stability by XRPD (equilibration, crystallization, evaporation, precipitation, compression, granulation); type: physicochemical; design: key to XRPD Result, crystallization by evaporation: —: no change detected; details: for XRPD Result, crystallization by evaporation: unstirred; for XRPD after crystallization from hot saturated solution: dissolved at 60° C., cooled in ice bath
Protocol: Slurries of samples were stirred at high speed for 24 hours at 25±0.5° C., filtered, and the solid collected analyzed by XRPD.
About 20 mg of the phosphate salt (form A) was equilibrated with 2 ml of a variety of solvents for at least 24 h at room temperature. Then the solution was filtered and the residue dried overnight at 50° C. under house vacuum. The solid obtained was investigated by XRPD. […]
About 20 mg of the phosphate salt (form A) was also equilibrated at about 50° C. with 2 ml solvent for at least 24 h. Then the solution was filtered and the residue dried overnight at 50° C. under house vacuum. The solid obtained was investigated by XRPD.
About 20 mg of the phosphate salt (form A) was dissolved in 2 ml solvent at 60° C. The solution was filtered. The clear filtrate obtained was cooled in an ice bath and agitated. The precipitate was collected on a filter, dried and investigated by XRPD.
About 20 mg of the phosphate salt (form A) was mixed with 2 ml solvent at 25° C. After stirring overnight, the solution was filtered. The filtrate was placed under nitrogen flow to evaporate the solvent. The residual solid was collected and investigated. The above evaporation was performed without stirring. Upon evaporation from THF/water (1:1) without stirring, a solid with XRPD pattern similar to that of the B form (see FIG. 1C), was obtained once. Subsequently, under these conditions, amorphous material, rather than form B, was obtained.
The same experiments (as described above for the 25° C. evaporation) were performed at 50° C.
Two different solvent combinations were tested. The phosphate salt (form A) was dissolved in DMSO where its solubility was high. A solvent (the anti-solvent) in which the form A was highly insoluble was added to the solution. The precipitate was collected on a filter, dried, and investigated by XRPD.
The phosphate salt (form A, 300 mg) was compressed for 5 minutes at 4000 pounds with a hydraulic press (diameter of the tablets 8 mm).
A solvent (water or ethanol) was added drop wise to the phosphate salt (form A) placed in a mortar until the solid in the mortar was sufficiently wet, and ground using a pestle until a paste-like consistency was obtained. The paste was dried at around 40° C. and under reduced pressure for >8 hours.

[2] = Determination of solubility (equilibration in solvent, filtrate by HPLC); type: physicochemical
Protocol: Excess free base (free base of Formula I), its phosphate salt (the monophosphoric acid salt of the free base), or another acid salt was equilibrated in solvents for 1 day at 25±0.5° C. The resultant slurry was filtered and the filtrate used for solubility determination by HPLC.
Solubility of the monohydrate of the anhydrous and monohydrate free base was measured in various aqueous media (e.g., pH 6.8 buffer, pH 4.5 buffer, pH 1 buffer), including simulated and actual human fluids.
The human fluids were collected from 12 human subjects.
Solubility studies of the phosphate salt were undertaken in aqueous media and in human fluids at 24 hours.

- XRPD after equilibration with solvents ([1]; room temperature, water, ethanol, isopropanol, ethyl acetate, acetone): No new XRPD pattern was observed
- Solubility in mg/ml after 24 h ([2]; Fasted State Simulated Intestinal Fluid (FaSSIF), listed as Anhydrous Free Base): 0.001 mg/mL (≈ 1.78 µM)
- Solubility in mg/ml after 24 h ([2]; Fed State Simulated Intestinal Fluid (FeSSIF), listed as Anhydrous Free Base): 0.148 mg/mL (≈ 264 µM)
- Solubility in mg/ml after 24 h ([2]; HIF, fed, listed as Anhydrous Free Base): 0.004 mg/mL (≈ 7.14 µM)
- Solubility in mg/ml after 24 h ([2]; Human gastric fluid (HGF), listed as Anhydrous Free Base): 0.001 mg/mL (≈ 1.78 µM)
- Solubility in mg/ml after 24 h ([2]; Human intestinal fluid (HIF) fasted, listed as Anhydrous Free Base): 0.002 mg/mL (≈ 3.57 µM)
- Solubility in mg/ml after 24 h ([2]; Simulated Gastric Fluid (SGF), listed as Anhydrous Free Base): 0.0497 mg/mL (≈ 88.7 µM)
- solubility in common organic solvents (in words) ([2]; listed as anhydrous free base): sparingly to slightly soluble
- Solubility ([2]; initial solubility test, Water): 1 µg/mL (≈ 1.78 µM)
- Solubility ([2]; initial solubility test, pH3 Buffer): 200 µg/mL (≈ 357 µM)
- solubility at 24 h ([2]; pH 1 HCl, 25 °C, pH 1, simulated gastric fluid, thermodynamic from solid, pH 1 HCl, read-out: Solubility in mg/ml after 24 h): 0.052 mg/mL (≈ 92.8 µM)
- Solubility ([2]; pH 6.8 buffer, listed as anhydrous free base): ca. 0.00004 mg/mL
- Solubility in mg/ml after 24 h ([2]; ph 4.5 Acetate, listed as Anhydrous Free Base): 0.008 mg/mL (≈ 14.3 µM)
- Solubility in mg/ml after 24 h ([2]; ph 6.8 Phosphate): <LOQ*
- Solubility ([2]; water (free base: pH 6.67), listed as anhydrous free base): ~0.09 µg/mL (≈ 0.161 µM)
SMILES: CCN1CCN(c2ccc(Nc3cc(N(C)C(=O)Nc4c(Cl)c(OC)cc(OC)c4Cl)ncn3)cc2)CC1 [Free Base, 3-(2,6-Dichloro-3,5-dimethoxy-phenyl)-1-{6-[4-(4-ethyl-piperazin-1-yl)-phenylamino]-pyrimidin-4-yl}-1-methyl-urea]

- XRPD after compression ([1]; 300 mg, 5 minutes at 4000 pounds, hydraulic press): No change of crystalline modification
- XRPD after crystallization by evaporation ([1]; 25° C., solution stirred during evaporation): form A was consistently obtained
- XRPD after crystallization by evaporation ([1]; 25° C., without stirring, 1:1 solutions of water with ethanol, 2-propanol, acetone, tetrahydrofuran): amorphous material was obtained
- XRPD after crystallization by evaporation ([1]; 50° C., solution stirred): Form A was also obtained
- XRPD Result, crystallization by evaporation ([1]; 50° C., 2-propanol/water 1:1): —
- XRPD Result, crystallization by evaporation ([1]; 50° C., Acetone/water 1:1): —
- XRPD Result, crystallization by evaporation ([1]; 50° C., Acetonitrile/water 1:1): Amorphous
- XRPD Result, crystallization by evaporation ([1]; 50° C., Ethanol/water 1:1): Amorphous
- XRPD Result, crystallization by evaporation ([1]; 50° C., Methanol/water 1:1): —
- XRPD Result, crystallization by evaporation ([1]; 50° C., Tetrahydrofuran/water 1:1): —
- XRPD after equilibration with solvents ([1]; at least 24 h at about 50° C., solvents of Table 7): No new XRPD pattern was observed
- XRPD after equilibration with solvents ([1]; at least 24 h at room temperature, solvents of Table 6): No new XRPD pattern was observed
- XRPD after crystallization from hot saturated solution ([1]; 1:1 solutions of water with methanol, ethanol, 2-propanol, acetone, tetrahydrofuran): No change in polymorphic form
- XRPD after crystallization from hot saturated solution ([1]; DMSO): form change noted
- XRPD after precipitation by addition of anti-solvent ([1]; dissolved in DMSO, anti-solvents methanol, ethanol, isopropanol, acetone, acetonitrile, THF, ethyl acetate, propyl acetate, toluene, methyl t-butyl ether, 1,4-dioxane, methylene chloride): No change in Form
- XRPD after granulation ([1]; wetted with water or ethanol, ground, dried at around 40° C.): no changes in the XRPD spectra
- Solubility in mg/ml after 24 h ([2]; Fasted State Simulated Intestinal Fluid (FaSSIF), listed as Phosphate Salt): 0.003 mg/mL
- Solubility in mg/ml after 24 h ([2]; Fed State Simulated Intestinal Fluid (FeSSIF), listed as Phosphate Salt): 1.067 mg/mL
- Solubility in mg/ml after 24 h ([2]; HIF, fed, listed as Phosphate Salt): 0.00141 mg/mL
- Solubility in mg/ml after 24 h ([2]; Human gastric fluid (HGF), listed as Phosphate Salt): 0.0115 mg/mL
- Solubility in mg/ml after 24 h ([2]; Human intestinal fluid (HIF) fasted, listed as Phosphate Salt): 0.00223 mg/mL
- Solubility in mg/ml after 24 h ([2]; Simulated Gastric Fluid (SGF), listed as Phosphate Salt): 0.088 mg/mL
- solubility in common organic solvents (in words) [2]: sparingly soluble
- Solubility ([2]; initial solubility test, Water, listed as Phosphate): 1700 µg/mL
- Solubility ([2]; initial solubility test, pH3 Buffer, listed as Phosphate): 39 µg/mL
- Solubility in mg/ml after 24 h ([2]; pH 1 HCl, listed as Phosphate Salt): 0.089 mg/mL
- Solubility ([2]; pH 6.8 buffer): ca. 0.00009 mg/mL
- Solubility in mg/ml after 24 h ([2]; ph 4.5 Acetate, listed as Phosphate Salt): 0.731 mg/mL
- Solubility ([2]; water (free base: pH 6.67)): 1300 µg/mL
SMILES: CCN1CCN(c2ccc(Nc3cc(N(C)C(=O)Nc4c(Cl)c(OC)cc(OC)c4Cl)ncn3)cc2)CC1 [Phosphate salt (form A)]
